Assay [1] relates to Maackia amurensis lectins (MAA). Briefly: CUPRA library screening and affinity, MAA. The conditions noted are these: 50uM MAA; mean of 4 DIi values, FigS3c. Type of assay: binding. The protocol:
(§1) Unless otherwise noted, the measurements were performed at 25 °C. […] We identified specific ligands from the depletion index (DIi, Eq. 1) – the change in the fractional abundance (Fi, Eq. 2) ratio of ligand i-bound and free ^UniPproxy ions upon addition of GBP. Prior to calculating Fi, we treated each mass spectrum with the Sliding Window Adducts Removal Method (SWARM)[18] to remove contributions to the abundance of ^UniPproxy -OS^mod complex ions from adducts, formed by the ESI process, of neighbouring complex ions (Supplementary Fig. 2). Shown in Fig. 2a is a summary of the DIi measured by CUPRA screening of the 66-component library against S4 (50 μM). As expected, the average DIi for this negative control is close to 1.0 (0.99 ± 0.03). In contrast, CUPRA screening against the positive controls produced decreases in DIi for one or more of the library components. […] Application of CUPRA to human CD22, part of an important class of Neu5Ac-binding GBPs implicated in both innate and adaptive immunity, correctly identified HMO08 as a ligand (Supplementary Fig. 4a). CUPRA screening of MAA at high concentration (50 μM) identified HMO03 and GA06 as ligands. […]
(§2) Using SWARM-treated mass spectra, DIi was calculated for each ligand from the ratio of the fractional abundances (Fi) of ligand (i)-bound and free ^UniPproxy ions in the presence (+GBP) and absence (-GBP) of GBP, Eqs. […]

The next assay deals with T1, human siglec-2 (CD22) (Homo sapiens, UniProt P20273).
T1 construct: Residues 1–332 of human Siglec-2 (MW 140 kDa, purity > 95%) were cloned in frame with human IgG1 Fc and a C-terminal His6; made in house
T1 sequence (P20273 20-332): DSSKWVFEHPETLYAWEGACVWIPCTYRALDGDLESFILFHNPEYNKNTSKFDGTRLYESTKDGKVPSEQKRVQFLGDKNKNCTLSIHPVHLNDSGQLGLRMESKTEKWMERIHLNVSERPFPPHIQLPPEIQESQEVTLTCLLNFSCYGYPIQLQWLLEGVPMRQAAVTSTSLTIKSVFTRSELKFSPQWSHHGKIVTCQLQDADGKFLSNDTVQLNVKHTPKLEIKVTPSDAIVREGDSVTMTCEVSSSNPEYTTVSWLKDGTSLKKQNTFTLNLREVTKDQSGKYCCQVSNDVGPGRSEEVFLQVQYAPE
Briefly: CUPRA library screening and affinity, siglec-2. It is filed as binding. As to conditions: for average DI: mean of 4 DIi values.

Assay [2] has as its target Cholera toxin B subunit homopentamer (CTB5) (Vibrio cholerae serotype O1, UniProt P01556). It is filed as binding.
Assay [3] deals with Sambucus nigra lectin (SNA) (Sambucus nigra, UniProt Q41358). It is filed as binding.
Chain of Sambucus nigra lectin (SNA) (Q41358 309-570 limits assumed): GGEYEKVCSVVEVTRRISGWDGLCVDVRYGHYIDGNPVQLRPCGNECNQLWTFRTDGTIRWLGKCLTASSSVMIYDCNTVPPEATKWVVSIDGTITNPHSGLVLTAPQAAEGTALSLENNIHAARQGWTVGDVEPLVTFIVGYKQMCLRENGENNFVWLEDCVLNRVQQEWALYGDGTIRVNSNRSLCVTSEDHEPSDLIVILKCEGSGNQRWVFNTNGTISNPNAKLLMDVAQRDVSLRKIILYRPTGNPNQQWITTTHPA
Chain of Sambucus nigra lectin (SNA) (Q41358 29-289 partner limits assumed): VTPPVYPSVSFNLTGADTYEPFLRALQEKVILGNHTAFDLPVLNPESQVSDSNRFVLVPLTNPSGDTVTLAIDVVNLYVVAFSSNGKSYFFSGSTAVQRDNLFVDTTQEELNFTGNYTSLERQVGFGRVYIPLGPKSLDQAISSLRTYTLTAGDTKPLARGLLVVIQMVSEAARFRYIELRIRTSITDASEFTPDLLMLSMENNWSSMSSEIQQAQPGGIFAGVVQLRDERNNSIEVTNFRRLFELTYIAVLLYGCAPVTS
In assay [4] the test system is family 51 carbohydrate binding module (CBM51). The assay can be described thus: CUPRA library screening and affinity, CBM51. As to conditions: 25uM CBM51; mean of 4 DIi values, FigS3a. How it is done:
as §1, §2

Assay [5] deals with human carbonic anhydrase type 1 (Homo sapiens, UniProt P00915). The assay can be described thus: Direct ESI-MS affinity of OSmod for the universal proxy protein (UniPproxy). As to conditions: read-out: Kd of OSmod for UniPproxy; direct ESI-MS, 200 mM aqueous ammonium acetate, pH 7, 25 °C.
Chain of human carbonic anhydrase type 1 (P00915 whole entry): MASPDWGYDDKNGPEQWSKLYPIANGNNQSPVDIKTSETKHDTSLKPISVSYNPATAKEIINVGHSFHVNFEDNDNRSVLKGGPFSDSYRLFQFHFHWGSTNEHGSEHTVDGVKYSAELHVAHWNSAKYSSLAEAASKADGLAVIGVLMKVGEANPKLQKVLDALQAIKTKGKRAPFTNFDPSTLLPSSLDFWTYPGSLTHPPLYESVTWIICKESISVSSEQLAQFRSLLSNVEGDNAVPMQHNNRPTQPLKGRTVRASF

The Kd is the free concentration of one partner at which half of the binding sites on the other are occupied at equilibrium, for simple one-to-one binding.

Values joined by “and” are separate entries in the source; they are usually repeats but may differ in a detail not shown here. Identical values can stand only once.

Chain of Cholera toxin B subunit homopentamer (CTB5) (P01556 22-124 limits assumed): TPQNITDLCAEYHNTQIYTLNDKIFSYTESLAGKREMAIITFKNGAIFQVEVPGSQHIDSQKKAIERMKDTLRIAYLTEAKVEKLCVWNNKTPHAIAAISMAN

As for `CC(=O)N[C@H]1[C@H](O[C@@H]2[C@H](O[C@]3(C(=O)O)C[C@H](O)[C@@H](NC(C)=O)[C@H]([C@H](O)[C@@H](CO)O[C@]4(C(=O)O)C[C@H](O)[C@@H](NC(C)=O)[C@H]([C@H](O)[C@H](O)CO)O4)O3)[C@@H](O)[C@H](O[C@H]3[C@H](O)[C@@H](O)[C@H](N(CCOCCOCCNC(=O)[C@H](Cc4ccccc4)NC(=O)[C@H](Cc4ccccc4)NC(=O)CCCC(=O)NCCc4ccc(S(N)(=O)=O)cc4)C(C)=O)O[C@@H]3CO)O[C@@H]2CO)O[C@H](CO)[C@H](O)[C@@H]1O` [GA10, GalNAcβ1-4(Neu5Acα2-8 Neu5Acα2-3)Galβ1-4Glc-CL], the “average DI” value in assay [1] is 1.024; at human siglec-2 (CD22) (25uM CD22) it was 0.9974; at human siglec-2 (CD22) (25uM CD22 at 0C), 0.9401; in assay [2], 1.025 and 1.0497; in assay [3] it was 0.9971; in assay [4], 0.9576. The “DIi(25uM CD22)” value on human siglec-2 (CD22) (25uM CD22, replicate column 1 of 4) came to 0.9925; on human siglec-2 (CD22) (25uM CD22, replicate column 2 of 4) it was 1.005; at human siglec-2 (CD22) (25uM CD22, replicate column 3 of 4) it was 0.9899; at human siglec-2 (CD22) (25uM CD22, replicate column 4 of 4), 1.002. In addition, the “DIi(25uM CD22 at 0C)” value is listed as 0.9406 on human siglec-2 (CD22) (25uM CD22 at 0C, replicate column 1 of 4); 0.9609 at human siglec-2 (CD22) (25uM CD22 at 0C, replicate column 2 of 4); 0.9196 on human siglec-2 (CD22) (25uM CD22 at 0C, replicate column 3 of 4); 0.9395 at human siglec-2 (CD22) (25uM CD22 at 0C, replicate column 4 of 4). Besides, in assay [2], the “DIi(2uM CTB5)” value is 1.017 and 1.023 and 1.026 and 1.032. For the same compound, in assay [2], the “DIi(10uM CTB5)” value is 1.049 and 1.055 and 1.045 and 1.05. In addition, in assay [2], the “DIi(10uM CTB5 at 0C)” value is 1.029 and 1.025 and 1.026 and 1.021. The “DIi(5uM SNA)” value in assay [3] is 1 and 0.9993 and 0.9948 and 0.9939. The Kd in assay [5] was 14.1 ± 1.9 µM.

Values taken from PMC6646405, “A quantitative, high-throughput method identifies protein–glycan interactions via mass spectrometry” (Communications Biology, 2019).
